# Measurements from patent US10501451B2, “Selective NR2B antagonists” (BRISTOL-MYERS SQUIBB COMPANY, priority 2015, dated 2019).
# What was measured:
# [1] = target: brain-resident NR2B-subtype receptors (Mus musculus (Mouse), UniProt P35438+Q01097); test: Ex vivo occupancy assay; type: in vivo; details: animals after dosing
# Experimental: Ex Vivo Occupancy Assay. […] 7-9 weeks old male CD-1 mice were dosed intravenously in a vehicle consisting of 10% dimethylacetamide, 40% PEG-400, 30% hydroxypropyl betacyclodextrin, and 30% water with experimental compounds and the forebrains were harvested 15 minutes post-dosing by decapitation. The brain samples were immediately snap-frozen and stored at −80° C. On the following day, the dosed brain samples were thawed on ice for 15-20 minutes followed by homogenization using Polytron for 10 seconds in cold homogenization buffer composed of 50 mM KH2PO4 (pH adjusted to 7.4 with KOH), 1 mM EDTA, 0.005% Triton X 100 and protease inhibitor cocktail (Sigma Aldrich). The crude homogenates were further homogenized using a Dounce homogenizer and the homogenized membrane aliquots from all animals were flash-frozen and stored at −80° C. until further use. The whole homogenization process was performed on ice. For determining occupancy, the membrane homogenates were first thawed on ice and then needle-homogenized using a 25 gauge needle. The homogenized membrane (6.4 mg/ml) was added to a 96-well plate followed by addition of ^3H Ro 25-6981 (6 nM). The reaction mixture was incubated for 5 minutes on a shaker at 4° C. and then harvested onto GF/B filter plates (treated with 0.5% PEI for 1 hr at room temperature). The filter plates were dried at 50° C. for 20 mins, incubated with microscint 20 for 10 minutes and read on TopCount (Perkin Elmer). Each dose or compound group consisted of 4-5 animals. The control group of animals was dosed with vehicle alone. Membrane from each animal was added in triplicates to the assay plate. Non-specific binding was determined using 10 μM Ro 25-6981 added to the wells containing membrane homogenates from vehicle-dosed animals. Specific counts/minute was converted to % occupancy at each dose of a compound for each animal using the following equation: […]
# Drug levels were determined by mass spectroscopy in the usual manner. Drug levels in the blood plasma were 572 nM in at this dose, and drug levels in the homogenized brain tissue were 863 nM.
# [2] = target: NR2B-subtype NMDA receptors (Rattus norvegicus (Rat), UniProt P35439+Q00960); test: Radioligand binding assay (3H Ro 25-6981 competition, rat forebrain membranes); details: 3H Ro 25-6981 (4 nM), P-2, read-out: NR2B Binding Ki
# NR2B-subtype NMDA receptors, sequence (Q00960 27-1482, other chains not shown): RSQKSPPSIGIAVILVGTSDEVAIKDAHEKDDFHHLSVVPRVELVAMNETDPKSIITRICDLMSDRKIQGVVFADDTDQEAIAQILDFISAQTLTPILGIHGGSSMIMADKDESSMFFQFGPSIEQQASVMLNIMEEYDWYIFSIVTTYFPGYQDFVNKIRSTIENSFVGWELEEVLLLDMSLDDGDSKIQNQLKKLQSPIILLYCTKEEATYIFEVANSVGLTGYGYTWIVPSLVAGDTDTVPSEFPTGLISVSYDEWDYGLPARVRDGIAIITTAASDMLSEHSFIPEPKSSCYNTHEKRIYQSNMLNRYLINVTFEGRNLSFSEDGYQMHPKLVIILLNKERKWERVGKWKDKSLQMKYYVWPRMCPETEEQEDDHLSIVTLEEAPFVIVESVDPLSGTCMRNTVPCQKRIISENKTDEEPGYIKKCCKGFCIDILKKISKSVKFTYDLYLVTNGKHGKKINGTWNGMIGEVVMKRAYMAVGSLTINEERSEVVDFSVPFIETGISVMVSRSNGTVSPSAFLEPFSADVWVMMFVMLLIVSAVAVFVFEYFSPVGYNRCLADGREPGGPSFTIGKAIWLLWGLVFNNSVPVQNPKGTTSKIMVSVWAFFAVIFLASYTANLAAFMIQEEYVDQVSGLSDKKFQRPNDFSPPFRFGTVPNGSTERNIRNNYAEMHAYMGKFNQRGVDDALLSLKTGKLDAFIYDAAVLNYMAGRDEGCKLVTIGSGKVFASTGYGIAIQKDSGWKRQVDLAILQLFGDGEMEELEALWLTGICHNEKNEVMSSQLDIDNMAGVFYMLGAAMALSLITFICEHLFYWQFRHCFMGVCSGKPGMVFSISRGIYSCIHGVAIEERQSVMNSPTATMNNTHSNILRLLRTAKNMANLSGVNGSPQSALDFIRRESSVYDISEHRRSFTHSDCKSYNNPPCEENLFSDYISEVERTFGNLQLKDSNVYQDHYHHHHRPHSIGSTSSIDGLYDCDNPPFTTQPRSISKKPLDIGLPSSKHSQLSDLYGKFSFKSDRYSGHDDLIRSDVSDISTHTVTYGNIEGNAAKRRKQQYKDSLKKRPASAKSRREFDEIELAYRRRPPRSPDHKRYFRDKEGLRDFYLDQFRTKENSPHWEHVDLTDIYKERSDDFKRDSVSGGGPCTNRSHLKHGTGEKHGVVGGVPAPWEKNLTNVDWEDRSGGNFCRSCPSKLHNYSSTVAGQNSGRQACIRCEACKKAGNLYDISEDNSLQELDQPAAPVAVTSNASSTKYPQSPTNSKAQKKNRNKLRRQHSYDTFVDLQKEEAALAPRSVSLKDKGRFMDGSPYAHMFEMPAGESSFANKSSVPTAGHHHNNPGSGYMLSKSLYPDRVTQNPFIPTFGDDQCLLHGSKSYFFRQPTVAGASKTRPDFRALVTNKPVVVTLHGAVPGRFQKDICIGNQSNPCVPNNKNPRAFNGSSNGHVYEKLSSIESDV
# Experimental: Radioligand Binding Assay. Binding experiments to determine binding to NR2B-subtype NMDA receptors were performed on forebrains of 8-10 weeks old male Sprague Dawley rats (Harlan, Netherlands) using ^3H Ro 25-6981 (Mutel V; Buchy D; Klingelschmidt A; Messer J; Bleuel Z; Kemp J A; Richards J G. Journal of Neurochemistry, 1998, 70(5):2147-2155. Rats were decapitated without anesthesia using a Guillotine (approved by animal ethics committee) and the harvested brains were snap-frozen and stored at −80° C. for 3-6 months for membrane preparation.
# For membrane preparation, rat forebrains were thawed on ice for 20 minutes in homogenization buffer composed of 50 mM KH2PO4 (pH adjusted to 7.4 with KOH), 1 mM EDTA, 0.005% Triton X 100 and protease inhibitor cocktail (Sigma Aldrich). Thawed brains were homogenized using a Dounce homogenizer and centrifuged at 48000×g for 20 min. The pellet was resuspended in cold buffer and homogenized again using a Dounce homogenizer. Subsequently, the homogenate was aliquoted, snap-frozen and stored at −80° C. for not more than 3-4 months.
# To perform the competition binding assay, thawed membrane homogenate was added to each well of a 96-well plate (20 μg/well). The experimental compounds were serially diluted in 100% DMSO and added to each row of the assay plate to achieve desired compound concentrations, keeping the DMSO concentration in the assay plate at 1.33% of the final reaction volume. Next, ^3H Ro 25-6981 (4 nM) was added to the assay plate. After incubation for 1 hr at room temperature, the membrane bound radioligand was harvested on to GF/B filter plates (treated with 0.5% PEI for 1 hr at room temperature). The filter plates were dried at 50° C. for 20 mins, incubated with microscint 20 for 10 minutes and finally, the counts were read on TopCount (Perkin Elmer).
# brain-resident NR2B-subtype receptors, sequence (Q01097 27-1482, other chains not shown): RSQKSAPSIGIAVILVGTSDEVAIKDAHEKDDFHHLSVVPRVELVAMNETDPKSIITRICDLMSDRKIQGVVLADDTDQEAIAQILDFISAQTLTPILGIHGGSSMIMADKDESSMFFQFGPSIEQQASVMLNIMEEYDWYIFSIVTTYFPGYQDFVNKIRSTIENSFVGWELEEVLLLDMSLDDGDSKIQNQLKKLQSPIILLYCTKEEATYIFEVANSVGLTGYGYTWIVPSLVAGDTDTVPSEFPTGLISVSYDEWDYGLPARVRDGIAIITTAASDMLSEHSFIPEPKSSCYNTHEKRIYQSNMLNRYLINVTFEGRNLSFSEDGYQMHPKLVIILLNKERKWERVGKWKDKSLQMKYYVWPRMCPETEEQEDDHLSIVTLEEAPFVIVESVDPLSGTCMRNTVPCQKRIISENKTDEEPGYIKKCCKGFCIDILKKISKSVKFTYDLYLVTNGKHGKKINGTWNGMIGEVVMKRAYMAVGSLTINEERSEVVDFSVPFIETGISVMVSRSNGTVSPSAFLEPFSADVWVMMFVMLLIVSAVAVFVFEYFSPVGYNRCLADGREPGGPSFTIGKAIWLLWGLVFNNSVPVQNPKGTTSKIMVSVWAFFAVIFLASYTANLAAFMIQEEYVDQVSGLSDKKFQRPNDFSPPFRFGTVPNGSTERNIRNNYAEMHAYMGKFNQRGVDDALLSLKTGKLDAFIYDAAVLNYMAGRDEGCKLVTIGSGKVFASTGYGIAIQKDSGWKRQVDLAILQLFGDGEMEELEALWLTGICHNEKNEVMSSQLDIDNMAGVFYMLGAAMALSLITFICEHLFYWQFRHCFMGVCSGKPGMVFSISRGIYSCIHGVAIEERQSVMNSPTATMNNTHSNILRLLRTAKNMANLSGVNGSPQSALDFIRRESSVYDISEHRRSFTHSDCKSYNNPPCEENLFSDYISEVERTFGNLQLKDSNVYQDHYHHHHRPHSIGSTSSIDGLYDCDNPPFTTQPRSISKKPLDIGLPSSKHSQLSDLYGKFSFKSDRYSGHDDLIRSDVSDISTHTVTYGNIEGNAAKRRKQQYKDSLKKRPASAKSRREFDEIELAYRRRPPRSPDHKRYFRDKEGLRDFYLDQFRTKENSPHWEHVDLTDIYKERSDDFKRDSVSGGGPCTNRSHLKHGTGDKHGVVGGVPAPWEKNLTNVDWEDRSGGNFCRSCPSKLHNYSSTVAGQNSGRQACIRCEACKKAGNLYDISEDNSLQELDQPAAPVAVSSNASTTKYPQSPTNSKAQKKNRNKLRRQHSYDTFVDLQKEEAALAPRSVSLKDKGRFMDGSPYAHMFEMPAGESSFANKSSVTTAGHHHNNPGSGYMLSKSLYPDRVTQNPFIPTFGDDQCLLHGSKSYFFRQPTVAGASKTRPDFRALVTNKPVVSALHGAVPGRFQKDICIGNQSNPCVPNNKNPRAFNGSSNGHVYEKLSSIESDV
smiles,measurement,setting,value
"Cc1ccc(CN2OCC(N3CCC(c4ccc(O)cc4)CC3)C2=O)cc1 (single isomer, unassigned) [Example 2, P-2, 4-(4-(4-hydroxyphenyl)piperidin-1-yl)-2-(4-methylbenzyl)isoxazolidin-3-one]",occupancy of brain-resident NR2B-subtype receptors after dosing (in words),[1],occupies brain-resident NR2B-subtype receptors
same,Ki,[2],2.79 nM
